Test results: patent US7842324B2 (Senomyx, Inc., priority 2005, dated 2010)
Where two headings read alike, the source gives them in different places.

How the values were obtained:
Human Panelists = assay: Line Scale sensory testing human taste test (Table C); format: in vivo; conditions: low sodium buffer pH 7.1
Source text: Purpose: To create a dose-response curve for perceived sweetness intensity of fructose-glucose concentrations. Test samples containing experimental compound are compared to this dose-response curve to determine equivalent sweetness intensity. This type of study requires a number of evaluations in order to obtain statistically significant data, so the test may be repeated with the same or additional panelists.
Overview: A group of eight or more panelists taste solutions including fructose-glucose at various concentrations, as well as the experimental compound, both with and without added fructose-glucose. Panelists rate sweetness intensity of all samples on an unstructured horizontal line scale, anchored from 0 to 10, where 0 equals no sweetness and 10 equals intense sweetness. Scores for sweetness intensity are averaged across panelists. Then using the average scores and/or equation of the line for the fructose-glucose dose-response curve, equivalent sweetness fructose-glucose concentrations are determined for the samples containing experimental compound.
Procedure: Eight or more subjects are used for the Line Scale tests. Subjects have been previously familiarized with the key attribute taste and are trained to use the 0 to 10 unstructured line scale. Subjects refrain from eating or drinking (except water) for at least 1 hour prior to the test. Subjects eat a cracker and rinse with water several times to clean the mouth.
Fructose-glucose solutions are provided at a wide range of concentrations, such as 0%, 2%, 4%, 6%, 8%, and 10% fructose-glucose, in order to create the dose-response curve. Samples containing experimental compound are prepared both alone and in a 6% fructose-glucose solution. All samples are made up in low sodium buffer pH 7.1. In order to aid dispersion, solutions can also be made up in 0.1% ethanol.
The solutions are dispensed in 20 ml volumes into 1 oz. sample cups and served to the subjects at room temperature. All samples are presented in randomized counterbalanced order to reduce response bias. Further, two sessions of testing may be used to check panel precision.
Subjects taste each sample individually and rate sweetness intensity on the line scale prior to tasting the next sample. All samples are expectorated. Subjects may retaste the samples but can only use the volume of sample given. Subjects must rinse with water between samples. Eating an unsalted cracker between sample pairs may be required depending on the samples tasted.
The scores for each sample are averaged across subjects and standard error is calculated. The dose-response curve is plotted graphically, and this may be used to ensure the panel is rating accurately; i.e. increasing the concentration of fructose-glucose should correspond to increased average scores for sweetness. A 2-way ANOVA (factors being samples and panelists) and multiple comparison tests (such as Tukey's Honestly Significant Difference test) can be used to determine differences among samples and/or panelists. A 3-way ANOVA, with sessions as the third factor, can be used to determine if there is any difference in the ratings between sessions.

[1] = target: T1, hT1R2/hT1R3 sweet receptor expressed in HEK293 cell line (Homo sapiens, UniProt Q7RTX0+Q8TE23); assay: In vitro hT1R2/hT1R3-HEK293 taste receptor activation assay (FLIPR); format: cell-based
T1 construct: expressed in transfected cells; host or cells: HEK293 derivative stably expressing Gα15 and hT1R2/hT1R3, clone S-9
T1 sequence (Q8TE23 20-839): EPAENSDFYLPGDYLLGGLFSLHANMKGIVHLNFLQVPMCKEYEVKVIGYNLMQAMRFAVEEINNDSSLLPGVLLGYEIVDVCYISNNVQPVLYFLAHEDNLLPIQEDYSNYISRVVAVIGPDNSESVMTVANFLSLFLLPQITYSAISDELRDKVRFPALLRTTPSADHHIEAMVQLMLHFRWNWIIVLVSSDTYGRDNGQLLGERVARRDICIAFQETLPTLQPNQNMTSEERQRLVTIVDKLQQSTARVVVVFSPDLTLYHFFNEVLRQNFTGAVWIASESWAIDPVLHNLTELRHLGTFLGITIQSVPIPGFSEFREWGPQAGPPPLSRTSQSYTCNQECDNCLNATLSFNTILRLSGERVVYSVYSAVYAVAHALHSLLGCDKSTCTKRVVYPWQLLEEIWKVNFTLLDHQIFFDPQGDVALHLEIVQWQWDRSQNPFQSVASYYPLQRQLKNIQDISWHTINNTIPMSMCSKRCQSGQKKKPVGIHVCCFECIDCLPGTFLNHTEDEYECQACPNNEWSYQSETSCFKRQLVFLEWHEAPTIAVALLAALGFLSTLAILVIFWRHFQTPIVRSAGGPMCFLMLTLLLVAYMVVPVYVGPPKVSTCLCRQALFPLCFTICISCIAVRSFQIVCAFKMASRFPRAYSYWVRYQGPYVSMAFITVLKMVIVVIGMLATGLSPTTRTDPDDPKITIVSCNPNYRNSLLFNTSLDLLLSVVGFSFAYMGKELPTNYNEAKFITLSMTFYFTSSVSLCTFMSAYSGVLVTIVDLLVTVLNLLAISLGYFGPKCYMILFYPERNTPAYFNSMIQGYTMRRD
T1 sequence (Q7RTX0 21-852): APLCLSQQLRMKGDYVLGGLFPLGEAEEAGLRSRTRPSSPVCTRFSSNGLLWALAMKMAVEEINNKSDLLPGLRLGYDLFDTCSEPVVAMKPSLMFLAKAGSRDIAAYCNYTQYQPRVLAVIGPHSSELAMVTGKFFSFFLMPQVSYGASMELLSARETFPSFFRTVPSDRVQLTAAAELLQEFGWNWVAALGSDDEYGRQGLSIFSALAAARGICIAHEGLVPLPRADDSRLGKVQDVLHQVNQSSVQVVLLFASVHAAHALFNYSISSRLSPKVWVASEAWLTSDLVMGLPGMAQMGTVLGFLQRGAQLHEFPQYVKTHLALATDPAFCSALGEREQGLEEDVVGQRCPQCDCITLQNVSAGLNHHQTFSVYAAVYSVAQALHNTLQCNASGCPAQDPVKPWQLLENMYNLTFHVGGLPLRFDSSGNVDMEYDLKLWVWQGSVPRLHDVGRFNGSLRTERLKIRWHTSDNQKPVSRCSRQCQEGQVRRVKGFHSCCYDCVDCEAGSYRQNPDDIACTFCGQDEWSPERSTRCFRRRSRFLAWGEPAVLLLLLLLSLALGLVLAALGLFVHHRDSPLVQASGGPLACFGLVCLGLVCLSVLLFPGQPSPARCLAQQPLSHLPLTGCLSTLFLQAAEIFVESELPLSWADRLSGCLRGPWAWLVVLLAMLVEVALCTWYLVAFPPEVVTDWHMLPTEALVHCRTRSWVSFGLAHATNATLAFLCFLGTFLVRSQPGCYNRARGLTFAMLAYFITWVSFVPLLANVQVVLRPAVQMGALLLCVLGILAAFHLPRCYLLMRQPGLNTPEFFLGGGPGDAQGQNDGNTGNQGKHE
How it was run: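 HEK293 cells stably expressing Gα15 and hT1R2/hT1R3 were loaded with Fluo-3AM (4 μM, 1 h, room temperature), then stimulated at room temperature in D-PBS. Peak fluorescence (ex 480/em 535 nm) was normalized to basal. Dose-responses were run in duplicate over 60 nM–30 μM, normalized to 400 mM D-fructose, and EC50 fitted by free-Hill non-linear regression.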

[2] = 10 μM compound + 6% fructose/glucose
[3] = read-out: EC50 for activation of a hT1R2/hT1R3 sweet receptor expressed in HEK293 cell line
[4] = 5 μM compound + 6% fructose/glucose

Structure (SMILES) | EC50 [1, 3] | EC50 ([1]; Table A, read-out: SWEET EC50) | also measured
CCC(C)CNC(=O)C(C)(C)c1ccc(-c2cncnc2)cc1 (centres unmarked) [Compound 25, 2-methyl-N-(2-methylbutyl)-2-(4-(pyrimidin-5-yl)phenyl)propanamide] | 0.23 µM |  | Perceived Equivalent Sweet Solution (Human Panelists; [2]): Equal to 10% fructose/ % fructose/glucose
COCc1cccc(-c2ccc(C(C)(C)C(=O)NCC(C)C)cc2)c1 [Compound 30, N-isobutyl-2-(3′-(methoxymethyl)biphenyl-4-yl)-2-methylpropanamide] | 0.61 µM |  | Perceived Equivalent Sweet Solution (Human Panelists; [4]): Equal to 10% fructose/ % fructose/glucose
COCc1cccc(-c2ccc(C(C)(C)C(=O)NCC(C)C)cc2OC)c1 [Compound 27, N-isobutyl-2-(2-methoxy-3′-(methoxymethyl)biphenyl-4-yl)-2-methylpropanamide] | 0.26 µM |  | Perceived Equivalent Sweet Solution (Human Panelists; [4]): Equal to 8% fructose/ % fructose/glucose
CC(C)CNC(=O)C(C)(C)c1ccc(-c2cncc(C#N)n2)cc1 [Compound 20, 2-(4-(6-cyanopyrazin-2-yl)phenyl)-N-isobutyl-2-methylpropanamide] | 0.02 µM |  | Perceived Equivalent Sweet Solution (Human Panelists; [2]): Equal to 10% fructose/ % fructose/glucose; Perceived Equivalent Sweet Solution (Human Panelists; 10 μM compound alone): Equal to 6% fructose/ % fructose/glucose
CC(C)CNC(=O)C(C)(C)c1ccc(-c2cncnc2)cc1 [Compound 43, N-isobutyl-2-methyl-2-(4-(pyrimidin-5-yl)phenyl)propanamide] | 1.01 µM |  | Perceived Equivalent Sweet Solution (Human Panelists; [2]): Equal to 8% fructose/ % fructose/glucose
COCc1cncc(-c2ccc(C(C)(C)C(=O)NCC(C)C)cc2)c1 [Compound 32, N-isobutyl-2-(4-(5-(methoxymethyl)pyridin-3-yl)phenyl)-2-methylpropanamide] | 0.91 µM |  | Perceived Equivalent Sweet Solution (Human Panelists; [2]): Equal to 8% fructose/ % fructose/glucose
CC(C)CNC(=O)C(C)(C)c1ccc(-c2cccn2C)cc1 [Compound 34, N-isobutyl-2-methyl-2-(4-(1-methyl-1H-pyrrol-2-yl)phenyl)propanamide] | 0.96 µM |  | Perceived Equivalent Sweet Solution (Human Panelists; [4]): Equal to 8% fructose/ % fructose/glucose; melting point: 59 to 60 °C
CC[C@@H](CO)NC(=O)C(C)(C)c1ccc(-c2cccc(COC)c2)cc1 [Compound 39, (S)-N-(1-hydroxybutan-2-yl)-2-(3′-(methoxymethyl)biphenyl-4-yl)-2-methylpropanamide] | 1.87 µM |  | Perceived Equivalent Sweet Solution (Human Panelists; 15 μM compound + 6% fructose/glucose): Equal to 8% fructose/ % fructose/glucose; melting point: 73 to 75 °C
CC(C)CNC(=O)C(C)(C)c1cc(-c2ccccc2)no1 [Compound 33, N-isobutyl-2-methyl-2-(3-phenylisoxazol-5-yl)propanamide] | 6.75 µM |  | 
CC(C)CNC(=O)C(C)(C)c1ccc(-c2ccccc2C#N)cc1 [Compound 14, 2-(2′-cyanobiphenyl-4-yl)-N-isobutyl-2-methylpropanamide] | 1.9 µM |  | 

More lines, main results first:

EC50 [1, 3] | EC50 ([1]; Table A, read-out: SWEET EC50) | Structure (SMILES) | also measured
 | 0.18 µM | CC(C)(C(=O)NC1CCCCC1)c1ccc(-c2cncc(C#N)c2)cc1 [Compound A86] | 
 | 0.37 µM | COc1ccc([C@@H](C)NC(=O)C(C)(C)c2ccc(-c3cncnc3)cc2)cc1 [Compound A88] | 
 | 0.51 µM | CCC(C)CNC(=O)C(C)(C)c1ccc(-c2cncc(COC)c2)cc1 (centres unmarked) [Compound A70] | 
 | 1.8 µM | CC(C)CNC(=O)C(C)c1ccc(-c2cccc(F)c2)cc1 (centres unmarked) [Compound A6] | 
 | 0.54 µM | COC(=O)c1cncc(-c2ccc(C(C)(C)C(=O)NCC(C)C)cc2)c1 [Compound A73] | 
